# Data from paper PMC4102551, “Screening and Characterisation of Antimicrobial Properties of Semisynthetic Betulin Derivatives” (PLoS ONE, 2014).
# “And” between values parts separate entries of the source, which are not always exact repeats. Identical values can stand only once.
# How the values were obtained:
# S. aureus ATCC 25923 = experiment: Broth microdilution assay, S. aureus; type: cell-based, Staphylococcus aureus; conditions: 50 µM, 24 h, inhibition of growth, mean ± SD
# Description: (§1) Clinically used antimicrobial agents were selected based on international guidelines for antimicrobial testing and were utilised as reference compounds in the antimicrobial assays. The compounds were purchased from Sigma, Fluka and ICN Biomedicals. Stock solutions of the reference compounds were prepared either in double distilled sterile MilliQ water or in DMSO. Water solutions were sterilised through a 0.22 µm filter (VWR International). […] During the primary screening, these reference compounds were used as positive controls at the determined MIC on every plate.
# (§2) Gram-negative strains Escherichia coli (ATCC 25922), Enterobacter aerogenes (ATCC 13048) and Pseudomonas aeruginosa (ATCC 27853), Gram-positive strains Staphylococcus aureus (ATCC 25923) and Enterococcus faecalis (ATCC 29212), and fungal strain Candida albicans (ATCC 90028) were obtained from Microbiologics Inc., and used for the antimicrobial screening. Strains were selected according to the guidelines set for clinical laboratories by Clinical and Laboratory Standards Institute [CLSI, formerly National Committee on Clinical Laboratory Standards [22]] and the European Committee on Antimicrobial Susceptibility Testing (EUCAST). Bacterial strains were grown on Mueller Hinton II Agar (MHA) (BBL, BD) and Mueller Hinton II broth (MHB) (BBL, BD), whereas Candida was initiated on Sabouraud Dextrose Agar (SDA) (Difco, BD) plates. Media were prepared into MilliQ water according to manufacturer’s instruction and autoclaved at 121°C for 15 min. Bacteria were plated on MHA plates and incubated at 37°C for 16–18 h. Bacterial suspension for the assays was prepared by subculturing the bacteria into MHB and by incubating at 37°C for 16–20 h at 110 rpm prior to the assay. Candida strain was grown on SDA plates at 27°C for 16–18 h and suspended into sterile 0.9% saline for the assay.
# (§3) Antimicrobial screening assays were performed by broth microdilution method following the guidelines of CLSI and EUCAST. Bacterial suspensions were prepared as mentioned earlier and diluted with MHB to obtain a final inoculum of 5×10^5 colony-forming units (cfu)/mL in the assay for all the bacteria (based on OD620 values previously calibrated against plate counts). Candida suspension was prepared into sterile 0.9% saline solution as stated earlier. […] Assays were carried out in clear 96-well microtitre plates and initiated by dispensing an equal volume of microbial suspension and sample solution diluted into the assay medium into the wells. The plates were incubated for 24 h at 37°C (for Candida the incubation was at 35°C for 48 h) with agitation. Absorbance was measured at 620 nm with Victor plate reader (Wallac 1420, Perkin Elmer) at 0, 4 and 24 h with the bacteria, and at 0, 24 and 48 h with Candida. The antimicrobial activity of the samples was calculated from the absorbance values by comparing to the controls, and expressed as a percentage inhibition of growth. All the betulin derivatives were first assayed at the single concentration of 50 µM (two separate experiments, each with three replicates). […] The MIC90 value was expressed as the lowest concentration of compound that inhibited the microbial growth by >90%. The MIC90 results are means of three replicates from two separate experiments.
# P. aeruginosa ATCC 27853 = experiment: Broth microdilution assay, P. aeruginosa; type: cell-based, Pseudomonas aeruginosa; conditions: for Inhibitory effect (%) P. aeruginosa ATCC 27853: 50 µM, 24 h, inhibition of growth, mean ± SD
# Description: as §1, §2, §3
# C. albicans ATCC 90028 = experiment: Broth microdilution assay, C. albicans; type: cell-based, Candida albicans; conditions: for Inhibitory effect (%) C. albicans ATCC 90028: 50 µM, 48 h at 35°C, inhibition of growth, mean ± SD
# Description: as §1, §2, §3
# E. coli ATCC 25922 = experiment: Broth microdilution assay, E. coli; type: cell-based, Escherichia coli; conditions: for Inhibitory effect (%) E. coli ATCC 25922: 50 µM, 24 h, inhibition of growth, mean ± SD
# Description: as §1, §2, §3
# E. aerogenes ATCC 13048 = experiment: Broth microdilution assay, E. aerogenes; type: cell-based, Enterobacter aerogenes; conditions: for Inhibitory effect (%) E. aerogenes ATCC 13048: 50 µM, 24 h, inhibition of growth, mean ± SD
# Description: as §1, §2, §3
# Huh-7 cells = experiment: in vitro; type: cell-based, human; conditions: 24 h exposure; for Cytotoxicity (%) Huh-7 cells: 50 µM, ATP content, 5% FBS
# Description: Huh-7 cells (derived from human hepatocellular carcinoma) were obtained as a gift from Prof. Ralf Bartenschlager (University of Heidelberg, Germany) and used for assessing the cytotoxicity against mammalian cells. HL cells (a heteroploid cell line used for propagating respiratory viruses) were used as a host cell line in the host-pathogen co-culture assay. […] Both cell lines were cultured at 37°C, 5% CO2 and 95% humidity.
# The effect of the betulin derivatives on metabolic activity of Huh-7 cells was evaluated by measuring the intracellular ATP content of the cells after 24 h exposure to the compounds. In brief, cells were seeded at 20000 cells/well on white-walled microplates (PerkinElmer) and incubated at 37°C, 5% CO2 and 95% humidity. After culturing the cells overnight, the medium was replaced with the assay media (5% FBS) containing the sample and the cells were incubated for 24 h. Polymyxin B sulphate (15000 IU/mL) was used as a positive control. Following the incubation period, Promega’s CellTiter-Glo Cell Viability Assay was used to determine the intracellular ATP levels according to the manufacturer’s instructions. Cells were washed with 100 µL 6.7 mM PBS, pH 7.4 and 50 µL of fresh assay media and 50 µL of the CellTiter-Glo reagent were added into the wells. After 2 min shaking, followed by 10 min incubation at RT, luminometric signal was measured using Varioskan Flash plate reader (Thermo Fisher Scientific).
# E. faecalis ATCC 29212 = experiment: Broth microdilution assay, E. faecalis; type: cell-based, Enterococcus faecalis; conditions: 50 µM, 24 h, inhibition of growth, mean ± SD
# Description: as §1, §2, §3
# [1] = lowest concentration inhibiting growth by >90%
Molecule,Inhibitory effect (%) S. aureus ATCC 25923 (S. aureus ATCC 25923) [%],Inhibitory effect (%) P. aeruginosa ATCC 27853 (P. aeruginosa ATCC 27853) [%],Inhibitory effect (%) C. albicans ATCC 90028 (C. albicans ATCC 90028) [%],Inhibitory effect (%) E. coli ATCC 25922 (E. coli ATCC 25922) [%],Inhibitory effect (%) E. aerogenes ATCC 13048 (E. aerogenes ATCC 13048) [%],Cytotoxicity (%) Huh-7 cells (Huh-7 cells) [%],Inhibitory effect (%) E. faecalis ATCC 29212 (E. faecalis ATCC 29212),"MIC90 (C. albicans ATCC 90028; Candida albicans, ATCC90028, lowest concentration inhibiting growth by >90%, read-out: MIC90 of positive control, C. albicans) [µg/mL]",IC50 cytotoxicity Huh-7 cells (positive control) (Huh-7 cells; ATP assay) [IU/mL],"MIC90 of positive control, P. aeruginosa (P. aeruginosa ATCC 27853; [1])","MIC90 of positive control, E. coli (E. coli ATCC 25922; [1])","MIC90 of positive control, E. aerogenes (E. aerogenes ATCC 13048; [1])"
C=C(C)[C@@H]1CC[C@]2(C#N)CC[C@]3(C)[C@H](CC[C@@H]4[C@@]5(C)CCC(=NOC(C)=O)C(C)(C)[C@@H]5CC[C@]43C)[C@@H]12 [Compound 32],5.5±1.9,5.7±1.7,-43.8±12.6,5.5±1.5,12.0±3.0,-7.2±3.0,57% and 56.6±7.0%,,,,,
CC(C)C12CCC3(COC(=O)C4CCCCC4)CCC4(C)C(=C31)C(CC1C3(C)CCC(OC(=O)C5CCCCC5)C(C)(C)C3CCC14C)n1c(=O)n(C(C)(C)C)c(=O)n12 (stereo not drawn) [Compound 51],7.5±3.8,5.9±0.3,-96.4±22.3,-3.2±1.0,10.8±2.5,-10.0±2.6,62.3±0.3%,,,,,
CC(C)C12CCC3(COC(=O)C4CCCCC4)CCC4(C)C(=C31)C(CC1C3(C)CCC(OC(=O)C5CCCCC5)C(C)(C)C3CCC14C)n1c(=O)n(C)c(=O)n12 (stereo not drawn) [Compound 48],5.0±4.2,7.1±1.7,-39.6±25.9,-5.5±1.9,12.1±2.2,-10.8±1.9,56.3±1.8%,,,,,
C=C(C)[C@@H]1CC[C@]2(C=NO)CC[C@]3(C)[C@H](CC[C@@H]4[C@@]5(C)CCC(=NO)C(C)(C)[C@@H]5CC[C@]43C)[C@@H]12 [Compound 30],5.1±6.0,1.4±1.1,13.9±8.8,7.9±6.1,18.5±3.4,42.4±5.4,57% and 56.9±2.6%,,,,,
"C[C@@H]1[C@H](O)[C@@H](C)/C=C/C=C/C=C/C=C/C=C/C=C/C=C/[C@H](O[C@@H]2O[C@H](C)[C@@H](O)[C@H](N)[C@@H]2O)C[C@@H]2O[C@](O)(C[C@@H](O)C[C@@H](O)[C@H](O)CC[C@@H](O)C[C@@H](O)CC(=O)O[C@H]1C)C[C@H](O)[C@H]2C(=O)O [Amphotericin B, reference compound]",,,,,,,,2,,,,
"C=C(C)[C@@H]1CC[C@]2(C(=O)OC)CC[C@]3(C)[C@H](CC[C@@H]4[C@@]5(C)CCC(=O)C(C)(C)[C@@H]5CC[C@]43C)[C@@H]12 [Compound 25, methyl ester of betulonic acid]",2.5±1.3,2.3±0.3,-30.0±17.3,-3.3±1.4,11.4±3.9,23.0±4.0,,,,,,
Polymyxin B sulphate [reference compound],,,,,,,,,9361,,,
Gentamycin [reference compound],,,,,,,,,,(8 µg/mL),(2 µg/mL),(0.5 µg/mL)
